According to US4435583A, “2-Halo-substituted monic acid A useful as antibacterial compounds” (Beecham Group p.l.c., priority 1981, dated 1984):
Converted amounts (≈) assume the structure as drawn.

Key:
Format in all cases: cell-based
M. suipneumoniae MS16 = test: In vitro anti-mycoplasmal MIC; settings: Mesomycoplasma hyopneumoniae, 144 h, Friis broth, 0.9% agarose, 6 days, 37° C., read-out: MIC
M. gallisepticum S6 = test: In vitro anti-mycoplasmal MIC; settings: Friis broth, 0.9% agarose, 6 days, 37° C.
M. suipneumoniae LABER = test: In vitro anti-mycoplasmal MIC; settings: Mesomycoplasma hyopneumoniae, 144 h, Friis broth, 0.9% agarose, 6 days, 37° C., read-out: MIC
M. suipneumoniae JF435 = test: In vitro anti-mycoplasmal MIC; settings: Friis broth, 0.9% agarose, 6 days, 37° C.
M. bovis NCTC 10131 = test: microbe, parasite or virus in culture; settings: M. bovis NCTC 10131; Friis broth, 0.9% agarose; 6 days, 37° C.
M. hyorhinis ATCC 25021 = test: In vitro anti-mycoplasmal MIC; settings: Mesomycoplasma hyorhinis, ATCC25021, 144 h, Friis broth, 0.9% agarose, 6 days, 37° C., read-out: MIC
M. suipneumoniae HK(2) = test: In vitro anti-mycoplasmal MIC; settings: Friis broth, 0.9% agarose, 6 days, 37° C.
M. suipneumoniae TAM 6N = test: In vitro anti-mycoplasmal MIC; settings: Friis broth, 0.9% agarose, 6 days, 37° C.
[1] = system: M. suipneumoniae PW/C/210; test: In vitro anti-mycoplasmal MIC; settings: Mesomycoplasma hyopneumoniae, 144 h, Friis broth, 0.9% agarose, 6 days, 37° C., read-out: MIC
[2] = system: M. suipneumoniae NCTC 10110; test: In vitro anti-mycoplasmal MIC; settings: Friis broth, 0.9% agarose, 6 days, 37° C.
[3] = system: M. suipneumoniae J2206/183b; test: In vitro anti-mycoplasmal MIC; settings: Friis broth, 0.9% agarose, 6 days, 37° C.
M. suipneumoniae NB12 = test: In vitro anti-mycoplasmal MIC; settings: Friis broth, 0.9% agarose, 6 days, 37° C.
M. suipneumoniae Str.11 = test: In vitro anti-mycoplasmal MIC; settings: Friis broth, 0.9% agarose, 6 days, 37° C.
M. pneumoniae ATCC 15492 = test: In vitro anti-mycoplasmal MIC; settings: Friis broth, 0.9% agarose, 6 days, 37° C.
Strep. 2788-B = test: MIC against human bacteria; settings: nutrient agar, 5% chocolated horse blood, 18 hours, 37° C.
Procedure: (§1) The values were determined by serial dilutions in nutrient agar with 5% chocolated horse blood after incubations for 18 hours at 37° C.

Bacillus subtilis 6633 = test: MIC against human bacteria; settings: nutrient agar, 5% chocolated horse blood, 18 hours, 37° C.
Procedure: as §1

[4] = system: Neisseria catarrhalis 1502; test: MIC against human bacteria; settings: nutrient agar, 5% chocolated horse blood, 18 hours, 37° C.
Procedure: as §1

P. mirabilis 889 = test: MIC against human bacteria; settings: nutrient agar, 5% chocolated horse blood, 18 hours, 37° C.
Procedure: as §1

K. aerogenes A = test: MIC against human bacteria; settings: nutrient agar, 5% chocolated horse blood, 18 hours, 37° C.
Procedure: as §1

[5] = system: Ps. aeruginosa NCTC 10662; test: MIC against human bacteria; settings: nutrient agar, 5% chocolated horse blood, 18 hours, 37° C.
Procedure: as §1

Past. multocida 1633 = test: MIC against human bacteria; settings: nutrient agar, 5% chocolated horse blood, 18 hours, 37° C.
Procedure: as §1

E. coli NCTC 10418 [6] = test: MIC against human bacteria; settings: nutrient agar, 5% chocolated horse blood, 18 hours, 37° C.
Procedure: as §1

Staph. aureus Russell = test: MIC against human bacteria; settings: nutrient agar, 5% chocolated horse blood, 18 hours, 37° C.
Procedure: as §1

Staph. aureus W2827 = test: MIC against human bacteria; settings: nutrient agar, 5% chocolated horse blood, 18 hours, 37° C.
Procedure: as §1

Strep. 641848-C = test: MIC against human bacteria; settings: nutrient agar, 5% chocolated horse blood, 18 hours, 37° C.
Procedure: as §1

[7] = system: Strep. pyrogenes R80/421-A; test: MIC against human bacteria; settings: nutrient agar, 5% chocolated horse blood, 18 hours, 37° C.
Procedure: as §1

Strep. pneumoniae CN33 = test: MIC against human bacteria; settings: nutrient agar, 5% chocolated horse blood, 18 hours, 37° C.
Procedure: as §1

E. coli ESS = test: MIC against human bacteria; settings: nutrient agar, 5% chocolated horse blood, 18 hours, 37° C.
Procedure: as §1

[8] = system: Haemophilus influenzae Q1; test: MIC against human bacteria; settings: nutrient agar, 5% chocolated horse blood, 18 hours, 37° C., read-out: MIC
Procedure: as §1

[9] = system: Corynebacterium xerosis 9755; test: MIC against human bacteria; settings: nutrient agar, 5% chocolated horse blood, 18 hours, 37° C.
Procedure: as §1

[10] = system: Haemophilus influenzae Wy21; test: MIC against human bacteria; settings: nutrient agar, 5% chocolated horse blood, 18 hours, 37° C., read-out: MIC
Procedure: as §1

Sarcina lutea 8340 = test: MIC against human bacteria; settings: nutrient agar, 5% chocolated horse blood, 18 hours, 37° C.
Procedure: as §1

Strep. faecalis I = test: MIC against human bacteria; settings: nutrient agar, 5% chocolated horse blood, 18 hours, 37° C.
Procedure: as §1

Staph. aureus Oxford [11] = test: MIC against human bacteria; settings: nutrient agar, 5% chocolated horse blood, 18 hours, 37° C.
Procedure: as §1

M. suipneumoniae UCD 1 = test: In vitro anti-mycoplasmal MIC; settings: Friis broth, 0.9% agarose, 6 days, 37° C.
M. hyorhinis ATCC 23234 = test: In vitro anti-mycoplasmal MIC; settings: Mesomycoplasma hyorhinis, ATCC23234, 144 h, Friis broth, 0.9% agarose, 6 days, 37° C., read-out: MIC
[12] = system: M. hyosynoviae ATCC 25591; test: In vitro anti-mycoplasmal MIC; settings: 144 h, Friis broth, 0.9% agarose, 6 days, 37° C., read-out: MIC
Staph. aureus 152 = test: MIC against veterinary bacteria; settings: Diagnostic Sensitivity Test Agar, 18 hours, 37° C.
Procedure: (§2) The values were determined using a two fold serial dilutions in Diagnostic Sensitivity Test Agar with an inoculum of 10^4 organisms and incubation for 18 hours at 37° C.

[13] = system: Erysipelothrix rhusiopathiae NCTC 8163; test: MIC against veterinary bacteria; settings: Diagnostic Sensitivity Test Agar, 18 hours, 37° C.
Procedure: as §2

Bord. bronchiseptica B08 = test: MIC against veterinary bacteria; settings: Diagnostic Sensitivity Test Agar, 18 hours, 37° C.
Procedure: as §2

S. typhimurium S18 = test: MIC against veterinary bacteria; settings: Diagnostic Sensitivity Test Agar, 18 hours, 37° C.
Procedure: as §2

Strep. dysgalactiae SPD1 = test: MIC against veterinary bacteria; settings: Diagnostic Sensitivity Test Agar, 18 hours, 37° C.
Procedure: as §2

Strep. uberis SPU1 = test: MIC against veterinary bacteria; settings: Strep. uberis SPU1; Diagnostic Sensitivity Test Agar; 18 hours, 37° C.
Procedure: as §2

[14] = system: Strep. suis (group D) SPS11; test: MIC against veterinary bacteria; settings: Diagnostic Sensitivity Test Agar, 18 hours, 37° C.
Procedure: as §2

Past. haemolytica PA5 = test: MIC against veterinary bacteria; settings: Diagnostic Sensitivity Test Agar, 18 hours, 37° C.
Procedure: as §2

E. coli NCTC 10418 [15] = test: MIC against veterinary bacteria; settings: Diagnostic Sensitivity Test Agar, 18 hours, 37° C.
Procedure: as §2

Past. multocida PA2 = test: MIC against veterinary bacteria; settings: Diagnostic Sensitivity Test Agar, 18 hours, 37° C.
Procedure: as §2

S. dublin S7 = test: MIC against veterinary bacteria; settings: Diagnostic Sensitivity Test Agar, 18 hours, 37° C.
Procedure: as §2

Strep. agalactiae SPA1 = test: MIC against veterinary bacteria; settings: Diagnostic Sensitivity Test Agar, 18 hours, 37° C.
Procedure: as §2

Bord. bronchiseptica B09 = test: MIC against veterinary bacteria; settings: Diagnostic Sensitivity Test Agar, 18 hours, 37° C.
Procedure: as §2

E. coli E1 = test: MIC against veterinary bacteria; settings: Diagnostic Sensitivity Test Agar, 18 hours, 37° C.
Procedure: as §2

Staph. aureus B4 = test: MIC against veterinary bacteria; settings: Diagnostic Sensitivity Test Agar, 18 hours, 37° C.
Procedure: as §2

Past. multocida PA1 = test: MIC against veterinary bacteria; settings: Diagnostic Sensitivity Test Agar, 18 hours, 37° C.
Procedure: as §2

[16] = system: Corynebacterium pyogenes CY1; test: MIC against veterinary bacteria; settings: Diagnostic Sensitivity Test Agar, 18 hours, 37° C.
Procedure: as §2

Staph. aureus Oxford [17] = test: MIC against veterinary bacteria; settings: Diagnostic Sensitivity Test Agar, 18 hours, 37° C.
Procedure: as §2

[18] = system: M. suipneumoniae ATCC 25095; test: In vitro anti-mycoplasmal MIC; settings: Friis broth, 0.9% agarose, 6 days, 37° C.
M. dispar NCTC 10125 = test: In vitro anti-mycoplasmal MIC; settings: 144 h, Friis broth, 0.9% agarose, 6 days, 37° C., read-out: MIC
[19] = system: M. bovigenitalium ATCC 14173; test: In vitro anti-mycoplasmal MIC; settings: 144 h, Friis broth, 0.9% agarose, 6 days, 37° C., read-out: MIC

CCOC(=O)C(F)=C(C)CC1OCC(CC2OC2C(C)C(C)O)C(O)C1O [Example 2, Ethyl-4-[5S-(2S,3S-epoxy-5S-hydroxy-4S-methylhexyl)-3R, 4R-dihydroxytetrahydropyran-2S-yl]-2-fluoro-3-methylbut-2(E)-enoate] gave an MIC (M. suipneumoniae MS16) of 5 µg/mL (≈ 12.8 µM), an MIC (M. gallisepticum S6) of 10.0 µg/mL (≈ 25.6 µM) and an MIC (M. suipneumoniae LABER) of 5 µg/mL (≈ 12.8 µM). It also gave an MIC (M. suipneumoniae JF435) of 10.0 µg/mL (≈ 25.6 µM), an MIC (M. bovis NCTC 10131) of 0.25 µg/mL (≈ 0.64 µM) and an MIC (M. hyorhinis ATCC 25021) of 5 µg/mL (≈ 12.8 µM). The MIC (M. suipneumoniae HK(2)) was 10.0 µg/mL (≈ 25.6 µM), the MIC (M. suipneumoniae TAM 6N) was 10.0 µg/mL (≈ 25.6 µM) and the MIC [1] was 5 µg/mL (≈ 12.8 µM). The MIC [2] was 10.0 µg/mL (≈ 25.6 µM), the MIC [3] was 10.0 µg/mL (≈ 25.6 µM) and the MIC (M. suipneumoniae NB12) was 10.0 µg/mL (≈ 25.6 µM). The MIC (M. suipneumoniae Str.11) was 5.0 µg/mL (≈ 12.8 µM), the MIC (M. pneumoniae ATCC 15492) was 10.0 µg/mL (≈ 25.6 µM) and the MIC (Strep. 2788-B) was > 100.0 µg/mL. For the same compound, the MIC (Bacillus subtilis 6633) was 100.0 µg/mL (≈ 256 µM), the MIC [4] was 10.0 µg/mL (≈ 25.6 µM) and the MIC (P. mirabilis 889) was > 100.0 µg/mL. The MIC (K. aerogenes A) was > 100.0 µg/mL, the MIC [5] was > 100.0 µg/mL and the MIC (Past. multocida 1633) was 50.0 µg/mL (≈ 128 µM). The MIC (E. coli NCTC 10418 [6]) was > 100.0 µg/mL, the MIC (Staph. aureus Russell) was 50.0 µg/mL (≈ 128 µM) and the MIC (Staph. aureus W2827) was 50.0 µg/mL (≈ 128 µM). For the same compound, the MIC (Strep. 641848-C) was 100.0 µg/mL (≈ 256 µM), the MIC [7] was 100.0 µg/mL (≈ 256 µM) and the MIC (Strep. pneumoniae CN33) was 100.0 µg/mL (≈ 256 µM). For the same compound, the MIC (E. coli ESS) was 50.0 µg/mL (≈ 128 µM), the MIC [8] was 10 µg/mL (≈ 25.6 µM) and the MIC [9] was > 100.0 µg/mL. The MIC [10] was 10 µg/mL (≈ 25.6 µM), the MIC (Sarcina lutea 8340) was > 100.0 µg/mL and the MIC (Strep. faecalis I) was > 100.0 µg/mL. It also gave an MIC (Staph. aureus Oxford [11]) of 25.0 µg/mL (≈ 64 µM), an MIC (M. suipneumoniae UCD 1) of 10.0 µg/mL (≈ 25.6 µM) and an MIC (M. hyorhinis ATCC 23234) of 5 µg/mL (≈ 12.8 µM). It also gave an MIC [12] of 10 µg/mL (≈ 25.6 µM), an MIC (Staph. aureus 152) of 40.0 µg/mL (≈ 102 µM) and an MIC [13] of 80.0 µg/mL (≈ 205 µM). The MIC (Bord. bronchiseptica B08) was > 80.0 µg/mL, the MIC (S. typhimurium S18) was > 80.0 µg/mL and the MIC (Strep. dysgalactiae SPD1) was 40.0 µg/mL (≈ 102 µM). It also gave an MIC (Strep. uberis SPU1) of 20.0 µg/mL (≈ 51.2 µM), an MIC [14] of 80.0 µg/mL (≈ 205 µM) and an MIC (Past. haemolytica PA5) of 80.0 µg/mL (≈ 205 µM). For the same compound, the MIC (E. coli NCTC 10418 [15]) was > 80.0 µg/mL, the MIC (Past. multocida PA2) was 20.0 µg/mL (≈ 51.2 µM) and the MIC (S. dublin S7) was > 80.0 µg/mL. For the same compound, the MIC (Strep. agalactiae SPA1) was 80.0 µg/mL (≈ 205 µM), the MIC (Bord. bronchiseptica B09) was > 80.0 µg/mL and the MIC (E. coli E1) was > 80.0 µg/mL. For the same compound, the MIC (Staph. aureus B4) was 40.0 µg/mL (≈ 102 µM), the MIC (Past. multocida PA1) was 40.0 µg/mL (≈ 102 µM) and the MIC [16] was 80.0 µg/mL (≈ 205 µM). It also gave an MIC (Staph. aureus Oxford [17]) of 40.0 µg/mL (≈ 102 µM), an MIC [18] of 10.0 µg/mL (≈ 25.6 µM) and an MIC (M. dispar NCTC 10125) of 2.5 µg/mL (≈ 6.4 µM). The MIC [19] was 0.5 µg/mL (≈ 1.28 µM).
